Like-named read-outs stand apart in the source and are kept apart here. One block for each molecule: values may come before it.
Assays:
c-RAF = c-RAF (Homo sapiens (Human), UniProt P04049); assay: Kinase inhibition assay (KinaseProfiler, 33P-ATP); assay type: biochemical; conditions: for remaining activity at 10 µM: c-RAF(h), read-out: The percentage of the remaining active protein
Yes = Yes (Homo sapiens (Human), UniProt P07947); assay: Kinase inhibition assay (KinaseProfiler, 33P-ATP); assay type: biochemical; conditions: for remaining activity at 10 µM: Yes(h), read-out: The percentage of the remaining active protein; for IC50: Yes, ATP at Km
Fyn = Fyn (Homo sapiens (Human), UniProt P06241); assay: Kinase inhibition assay (KinaseProfiler, 33P-ATP); assay type: biochemical; conditions: for remaining activity at 10 µM: Fyn(h), read-out: The percentage of the remaining active protein; for IC50: Fyn, ATP at Km
KDR = KDR (Homo sapiens (Human), UniProt P35968); assay: Kinase inhibition assay (KinaseProfiler, 33P-ATP); assay type: biochemical; conditions: for remaining activity at 10 µM: KDR(h), read-out: The percentage of the remaining active protein
EphB2 = EphB2 (Homo sapiens (Human), UniProt P29323); assay: Kinase inhibition assay (KinaseProfiler, 33P-ATP); assay type: biochemical; conditions: for remaining activity at 10 µM: EphB2(h), read-out: The percentage of the remaining active protein; for IC50: EphB2, ATP at Km
ErbB2 = ErbB2 (Homo sapiens (Human), UniProt P04626); assay: Kinase inhibition assay (KinaseProfiler, 33P-ATP); assay type: biochemical; conditions: for remaining activity at 10 µM: ErbB2(h), read-out: The percentage of the remaining active protein; for IC50: ErbB2, ATP at Km
DDR1 = DDR1 (Homo sapiens (Human), UniProt Q08345); assay: Kinase inhibition assay (KinaseProfiler, 33P-ATP); assay type: biochemical; conditions: for IC50: DDR1, ATP at Km
DDR2 = DDR2 (Homo sapiens (Human), UniProt Q16832); assay: Kinase inhibition assay (KinaseProfiler, 33P-ATP); assay type: biochemical; conditions: for IC50: DDR2, ATP at Km
IKKα = IKKα (Homo sapiens (Human), UniProt O15111); assay: Kinase inhibition assay (KinaseProfiler, 33P-ATP); assay type: biochemical; conditions: IKKα(h), read-out: The percentage of the remaining active protein
EGFR = EGFR (Homo sapiens (Human), UniProt P00533); assay: Kinase inhibition assay (KinaseProfiler, 33P-ATP); assay type: biochemical; conditions: EGFR(h), read-out: The percentage of the remaining active protein
Tie2 = Tie2 (Homo sapiens (Human), UniProt Q02763); assay: Kinase inhibition assay (KinaseProfiler, 33P-ATP); assay type: biochemical; conditions: Tie2 (h), read-out: The percentage of the remaining active protein
CHK1(h) = CHK1(h) (Homo sapiens (Human), UniProt O14757); assay: Kinase inhibition assay (KinaseProfiler, 33P-ATP); assay type: biochemical; conditions: read-out: The percentage of the remaining active protein
Fer(h) = Fer(h) (Homo sapiens (Human), UniProt P16591); assay: Kinase inhibition assay (KinaseProfiler, 33P-ATP); assay type: biochemical; conditions: read-out: The percentage of the remaining active protein
GSK3β(h) = GSK3β(h) (Homo sapiens (Human), UniProt P49841); assay: Kinase inhibition assay (KinaseProfiler, 33P-ATP); assay type: biochemical; conditions: read-out: The percentage of the remaining active protein
Itk(h) = Itk(h) (Homo sapiens (Human), UniProt Q08881); assay: Kinase inhibition assay (KinaseProfiler, 33P-ATP); assay type: biochemical; conditions: read-out: The percentage of the remaining active protein
JNK1α1(h) = JNK1α1(h) (Homo sapiens (Human), UniProt P45983); assay: Kinase inhibition assay (KinaseProfiler, 33P-ATP); assay type: biochemical; conditions: read-out: The percentage of the remaining active protein
Met(h) = Met(h) (Homo sapiens (Human), UniProt P08581); assay: Kinase inhibition assay (KinaseProfiler, 33P-ATP); assay type: biochemical; conditions: read-out: The percentage of the remaining active protein
PAK1(h) = PAK1(h) (Homo sapiens (Human), UniProt Q13153); assay: Kinase inhibition assay (KinaseProfiler, 33P-ATP); assay type: biochemical; conditions: read-out: The percentage of the remaining active protein
Pim-1(h) = Pim-1(h) (Homo sapiens (Human), UniProt P11309); assay: Kinase inhibition assay (KinaseProfiler, 33P-ATP); assay type: biochemical; conditions: read-out: The percentage of the remaining active protein
PKBα(h) = PKBα(h) (Homo sapiens (Human), UniProt P31749); assay: Kinase inhibition assay (KinaseProfiler, 33P-ATP); assay type: biochemical; conditions: read-out: The percentage of the remaining active protein
PKBβ(h) = PKBβ(h) (Homo sapiens (Human), UniProt P31751); assay: Kinase inhibition assay (KinaseProfiler, 33P-ATP); assay type: biochemical; conditions: read-out: The percentage of the remaining active protein
PKCα(h) = PKCα(h) (Homo sapiens (Human), UniProt P17252); assay: Kinase inhibition assay (KinaseProfiler, 33P-ATP); assay type: biochemical; conditions: read-out: The percentage of the remaining active protein
RIPK2(h) = RIPK2(h) (Homo sapiens (Human), UniProt O43353); assay: Kinase inhibition assay (KinaseProfiler, 33P-ATP); assay type: biochemical; conditions: read-out: The percentage of the remaining active protein
TBK1(h) = TBK1(h) (Homo sapiens (Human), UniProt Q9UHD2); assay: Kinase inhibition assay (KinaseProfiler, 33P-ATP); assay type: biochemical; conditions: read-out: The percentage of the remaining active protein
Tec(h) activated = Tec(h) activated (Homo sapiens (Human), UniProt P42680); assay: Kinase inhibition assay (KinaseProfiler, 33P-ATP); assay type: biochemical; conditions: read-out: The percentage of the remaining active protein
A549 = assay: Cell proliferation inhibition assay (MTT); assay type: cell-based; conditions: Homo sapiens; A549; MTT, 72 hours; read-out: Proliferation inhibitory activity IC50
MDA-MB-231 = assay: Cell proliferation inhibition assay (MTT); assay type: cell-based, human; conditions: Homo sapiens, MDA-MB-231, MTT, 72 hours
BT474 = assay: Cell proliferation inhibition assay (MTT); assay type: cell-based; conditions: Homo sapiens, BT-474; BT474; MTT, 72 hours; read-out: Proliferation inhibitory activity IC50
HT29 = assay: Cell proliferation inhibition assay (MTT); assay type: cell-based; conditions: Homo sapiens, HT-29; HT29; MTT, 72 hours; read-out: Proliferation inhibitory activity IC50
A375 = assay: Cell proliferation inhibition assay (MTT); assay type: cell-based; conditions: Homo sapiens, A-375; A375; MTT, 72 hours; read-out: Proliferation inhibitory activity IC50
c-Src(1-530) = c-Src(1-530) (Homo sapiens (Human), UniProt P12931); assay: Kinase inhibition assay (KinaseProfiler, 33P-ATP); conditions: for remaining activity at 10 µM: read-out: The percentage of the remaining active protein
EphA2 = EphA2 (Homo sapiens (Human), UniProt P29317); assay: Kinase inhibition assay (KinaseProfiler, 33P-ATP)
[1] = read-out: Proliferation inhibitory activity IC50
[2] = read-out: Proliferative inhibitory activity MDA-MB-231 (IC50 class)

Chain of DDR2 (Q16832 22-855): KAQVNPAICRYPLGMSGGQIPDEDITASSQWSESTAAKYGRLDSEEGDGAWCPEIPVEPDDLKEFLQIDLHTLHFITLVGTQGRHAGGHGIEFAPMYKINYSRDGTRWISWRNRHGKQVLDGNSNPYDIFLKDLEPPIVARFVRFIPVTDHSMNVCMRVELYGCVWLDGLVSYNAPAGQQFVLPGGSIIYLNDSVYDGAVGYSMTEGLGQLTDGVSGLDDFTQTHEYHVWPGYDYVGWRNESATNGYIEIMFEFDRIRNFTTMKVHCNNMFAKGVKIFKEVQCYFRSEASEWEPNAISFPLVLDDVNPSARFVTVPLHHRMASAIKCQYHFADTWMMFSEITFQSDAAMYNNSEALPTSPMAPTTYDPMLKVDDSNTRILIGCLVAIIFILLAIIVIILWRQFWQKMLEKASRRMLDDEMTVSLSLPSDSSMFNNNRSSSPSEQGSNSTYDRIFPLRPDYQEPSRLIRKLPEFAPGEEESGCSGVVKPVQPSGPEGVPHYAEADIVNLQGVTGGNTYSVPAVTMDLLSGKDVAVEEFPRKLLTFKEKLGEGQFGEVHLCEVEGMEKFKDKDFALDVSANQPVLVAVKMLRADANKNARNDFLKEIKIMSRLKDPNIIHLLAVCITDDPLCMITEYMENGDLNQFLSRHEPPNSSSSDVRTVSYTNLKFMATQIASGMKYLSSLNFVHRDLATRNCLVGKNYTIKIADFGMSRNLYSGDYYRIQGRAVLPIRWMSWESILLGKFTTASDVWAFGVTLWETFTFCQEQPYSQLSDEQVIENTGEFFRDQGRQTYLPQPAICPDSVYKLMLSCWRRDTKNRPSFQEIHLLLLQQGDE
Chain of c-RAF (P04049 whole entry): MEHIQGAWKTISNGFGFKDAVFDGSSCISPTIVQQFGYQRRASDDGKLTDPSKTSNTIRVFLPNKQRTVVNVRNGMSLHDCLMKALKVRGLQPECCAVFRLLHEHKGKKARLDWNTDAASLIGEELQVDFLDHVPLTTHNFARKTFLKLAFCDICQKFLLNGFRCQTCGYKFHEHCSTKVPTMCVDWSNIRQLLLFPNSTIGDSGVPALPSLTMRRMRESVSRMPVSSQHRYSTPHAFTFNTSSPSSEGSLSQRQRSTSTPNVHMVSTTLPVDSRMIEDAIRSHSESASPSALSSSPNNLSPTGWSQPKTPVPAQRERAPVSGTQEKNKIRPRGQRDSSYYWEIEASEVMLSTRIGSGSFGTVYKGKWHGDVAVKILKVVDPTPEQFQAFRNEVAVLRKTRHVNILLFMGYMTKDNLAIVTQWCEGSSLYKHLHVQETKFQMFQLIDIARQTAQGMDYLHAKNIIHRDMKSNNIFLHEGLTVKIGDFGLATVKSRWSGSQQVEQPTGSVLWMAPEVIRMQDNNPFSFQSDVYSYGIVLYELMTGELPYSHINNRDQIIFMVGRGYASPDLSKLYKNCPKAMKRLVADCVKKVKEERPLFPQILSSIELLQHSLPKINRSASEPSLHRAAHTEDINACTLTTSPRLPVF
Chain of Fyn (P06241 whole entry): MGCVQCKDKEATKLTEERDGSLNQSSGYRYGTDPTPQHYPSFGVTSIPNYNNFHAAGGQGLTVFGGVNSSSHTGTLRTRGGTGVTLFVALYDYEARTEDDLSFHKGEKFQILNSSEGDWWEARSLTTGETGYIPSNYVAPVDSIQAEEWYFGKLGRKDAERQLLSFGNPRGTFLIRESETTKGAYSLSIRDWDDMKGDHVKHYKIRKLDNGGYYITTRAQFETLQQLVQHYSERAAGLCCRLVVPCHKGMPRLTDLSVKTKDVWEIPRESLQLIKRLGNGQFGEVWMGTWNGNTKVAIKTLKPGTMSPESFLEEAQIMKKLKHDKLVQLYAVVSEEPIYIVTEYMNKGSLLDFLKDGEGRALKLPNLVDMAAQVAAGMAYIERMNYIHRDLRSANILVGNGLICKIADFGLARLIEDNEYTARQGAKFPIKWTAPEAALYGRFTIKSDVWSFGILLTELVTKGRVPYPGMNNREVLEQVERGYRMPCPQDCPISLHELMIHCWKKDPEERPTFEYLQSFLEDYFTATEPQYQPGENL
Chain of DDR1 (Q08345 19-913): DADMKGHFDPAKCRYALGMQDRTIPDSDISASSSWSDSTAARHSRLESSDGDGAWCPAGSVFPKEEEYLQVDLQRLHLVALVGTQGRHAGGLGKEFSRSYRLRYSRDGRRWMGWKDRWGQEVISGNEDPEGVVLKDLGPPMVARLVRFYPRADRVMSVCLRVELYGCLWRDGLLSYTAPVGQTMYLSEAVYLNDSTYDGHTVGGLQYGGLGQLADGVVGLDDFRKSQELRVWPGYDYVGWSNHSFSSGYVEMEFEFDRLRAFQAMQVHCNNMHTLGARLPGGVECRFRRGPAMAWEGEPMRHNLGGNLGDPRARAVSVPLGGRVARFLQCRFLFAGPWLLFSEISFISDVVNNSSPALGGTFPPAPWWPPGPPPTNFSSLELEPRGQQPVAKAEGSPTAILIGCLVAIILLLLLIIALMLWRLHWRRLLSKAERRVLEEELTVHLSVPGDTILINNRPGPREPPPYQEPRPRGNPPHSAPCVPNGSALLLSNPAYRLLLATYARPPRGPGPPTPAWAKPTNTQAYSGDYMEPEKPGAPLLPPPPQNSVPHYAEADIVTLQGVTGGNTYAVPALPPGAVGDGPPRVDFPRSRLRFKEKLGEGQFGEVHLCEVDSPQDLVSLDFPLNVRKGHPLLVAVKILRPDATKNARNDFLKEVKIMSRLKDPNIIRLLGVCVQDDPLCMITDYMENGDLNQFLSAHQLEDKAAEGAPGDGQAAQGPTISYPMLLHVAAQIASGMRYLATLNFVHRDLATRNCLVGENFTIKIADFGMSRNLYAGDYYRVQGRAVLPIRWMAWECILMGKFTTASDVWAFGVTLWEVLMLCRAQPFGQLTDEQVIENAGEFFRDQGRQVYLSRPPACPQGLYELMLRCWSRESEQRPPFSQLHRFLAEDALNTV
Chain of c-Src(1-530) (P12931 whole entry, looked up): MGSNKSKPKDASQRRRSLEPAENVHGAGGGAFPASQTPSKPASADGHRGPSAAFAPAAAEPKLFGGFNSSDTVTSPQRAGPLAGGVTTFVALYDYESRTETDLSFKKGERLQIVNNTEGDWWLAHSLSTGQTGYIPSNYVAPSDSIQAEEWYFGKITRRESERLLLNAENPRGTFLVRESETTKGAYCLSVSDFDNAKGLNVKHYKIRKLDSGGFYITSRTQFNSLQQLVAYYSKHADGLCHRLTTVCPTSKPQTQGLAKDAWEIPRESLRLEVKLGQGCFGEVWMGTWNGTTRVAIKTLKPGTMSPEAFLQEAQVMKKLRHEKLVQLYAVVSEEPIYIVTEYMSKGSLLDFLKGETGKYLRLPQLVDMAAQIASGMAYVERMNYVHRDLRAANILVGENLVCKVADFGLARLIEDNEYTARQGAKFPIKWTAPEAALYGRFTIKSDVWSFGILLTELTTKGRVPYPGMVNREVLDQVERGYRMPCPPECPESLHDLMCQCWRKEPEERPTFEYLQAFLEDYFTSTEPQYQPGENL
Chain of ErbB2 (P04626 23-1255): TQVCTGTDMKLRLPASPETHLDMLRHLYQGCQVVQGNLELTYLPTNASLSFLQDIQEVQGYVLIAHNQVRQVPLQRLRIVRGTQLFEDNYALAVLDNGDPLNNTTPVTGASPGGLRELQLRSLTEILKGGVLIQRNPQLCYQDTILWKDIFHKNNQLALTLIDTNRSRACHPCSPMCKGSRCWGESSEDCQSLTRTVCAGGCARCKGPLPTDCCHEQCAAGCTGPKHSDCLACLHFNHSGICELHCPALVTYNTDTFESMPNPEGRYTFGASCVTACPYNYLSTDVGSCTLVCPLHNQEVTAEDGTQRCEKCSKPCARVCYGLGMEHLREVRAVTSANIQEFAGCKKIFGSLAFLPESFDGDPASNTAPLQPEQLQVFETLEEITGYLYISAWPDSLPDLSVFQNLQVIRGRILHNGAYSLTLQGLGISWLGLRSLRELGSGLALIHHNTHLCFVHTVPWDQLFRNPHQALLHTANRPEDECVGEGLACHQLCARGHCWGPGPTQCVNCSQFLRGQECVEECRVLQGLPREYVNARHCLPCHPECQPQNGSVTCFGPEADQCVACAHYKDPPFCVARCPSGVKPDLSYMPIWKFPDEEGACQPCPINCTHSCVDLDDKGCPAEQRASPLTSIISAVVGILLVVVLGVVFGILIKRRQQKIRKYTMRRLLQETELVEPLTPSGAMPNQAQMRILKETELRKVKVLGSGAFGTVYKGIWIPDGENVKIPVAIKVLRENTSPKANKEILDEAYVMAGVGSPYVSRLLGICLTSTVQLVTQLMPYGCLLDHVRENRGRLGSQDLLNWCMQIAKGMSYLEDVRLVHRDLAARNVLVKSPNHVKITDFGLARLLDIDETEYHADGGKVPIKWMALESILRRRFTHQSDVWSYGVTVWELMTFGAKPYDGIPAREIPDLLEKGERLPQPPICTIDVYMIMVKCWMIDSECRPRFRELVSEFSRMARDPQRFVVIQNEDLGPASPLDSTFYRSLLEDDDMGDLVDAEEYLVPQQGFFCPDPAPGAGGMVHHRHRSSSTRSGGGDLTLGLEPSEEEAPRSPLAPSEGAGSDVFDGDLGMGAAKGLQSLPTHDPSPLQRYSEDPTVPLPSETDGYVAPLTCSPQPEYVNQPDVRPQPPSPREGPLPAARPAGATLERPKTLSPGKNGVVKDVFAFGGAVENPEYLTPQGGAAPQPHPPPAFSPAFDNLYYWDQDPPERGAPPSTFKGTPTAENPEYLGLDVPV
Chain of Pim-1(h) (P11309 whole entry): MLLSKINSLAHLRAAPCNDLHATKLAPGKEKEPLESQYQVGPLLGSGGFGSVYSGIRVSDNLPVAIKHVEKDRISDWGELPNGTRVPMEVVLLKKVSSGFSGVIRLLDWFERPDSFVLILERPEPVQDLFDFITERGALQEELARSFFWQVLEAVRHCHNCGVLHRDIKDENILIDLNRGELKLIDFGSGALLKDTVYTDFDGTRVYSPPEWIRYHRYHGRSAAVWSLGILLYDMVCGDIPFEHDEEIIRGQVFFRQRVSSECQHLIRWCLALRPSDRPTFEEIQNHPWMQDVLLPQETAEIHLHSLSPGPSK

- remaining activity at 10 µM (c-RAF; compound at 10 μM): 2%
- IC50 (c-RAF; c-RAF, ATP at Km): 19 nM
- remaining activity at 10 µM (Yes; compound at 10 μM): 0%
- IC50 (Yes): < 1 nM
- remaining activity at 10 µM (Fyn; compound at 10 μM): -1%
- IC50 (Fyn): 3 nM
- remaining activity at 10 µM (KDR; compound at 10 μM): 3%
- IC50 (KDR; KDR, ATP at Km): 12 nM
- remaining activity at 10 µM (EphB2; compound at 10 μM): -1%
- IC50 (EphB2): 10 nM
- remaining activity at 10 µM (ErbB2; compound at 10 μM): 2%
- IC50 (ErbB2): 251 nM
- IC50 (DDR1): 4 nM
- IC50 (DDR2): 74 nM
- remaining activity at 10 µM (IKKα; compound at 10 μM): 14%
- remaining activity at 10 µM (EGFR; compound at 10 μM): 15%
- remaining activity at 10 µM (Tie2; compound at 10 μM): 3%
- remaining activity at 10 µM (CHK1(h); compound at 10 μM): 100%
- remaining activity at 10 µM (Fer(h); compound at 10 μM): 92%
- remaining activity at 10 µM (GSK3β(h); compound at 10 μM): 99%
- remaining activity at 10 µM (Itk(h); compound at 10 μM): 92%
- remaining activity at 10 µM (JNK1α1(h); compound at 10 μM): 36%
- remaining activity at 10 µM (Met(h); compound at 10 μM): 102%
- remaining activity at 10 µM (PAK1(h); compound at 10 μM): 36%
- remaining activity at 10 µM (Pim-1(h); compound at 10 μM): 34%
- remaining activity at 10 µM (PKBα(h); compound at 10 μM): 56%
- remaining activity at 10 µM (PKBβ(h); compound at 10 μM): 14%
- remaining activity at 10 µM (PKCα(h); compound at 10 μM): 92%
- remaining activity at 10 µM (RIPK2(h); compound at 10 μM): 15%
- remaining activity at 10 µM (TBK1(h); compound at 10 μM): 83%
- remaining activity at 10 µM (Tec(h) activated; compound at 10 μM): 13%
- IC50 (A549): 1420 nM
- IC50 (MDA-MB-231; [1]): 15.3 nM
- IC50 (MDA-MB-231; [2]): < 100 nM
- IC50 (BT474): > 10 µM
- IC50 (HT29): 350 nM
- IC50 (A375): 26.6 nM
- IC50 (c-Src(1-530); c-Src(1-530), ATP at Km): 2 nM
- remaining activity at 10 µM (c-Src(1-530)): 0%
- IC50 (EphA2): 18 nM
Structure (SMILES): Cc1ccc(NC(=O)c2cccc(C(F)(F)F)c2)cc1C#Cc1nn(C2CCN(C)CC2)c2ncnc(N)c12 [Compound 31]

- remaining activity at 10 µM (c-RAF; 10 μM): 24%
- remaining activity at 10 µM (Yes; 10 μM): 0%
- IC50 (Yes): 1 nM
- remaining activity at 10 µM (Fyn; 10 μM): 0%
- IC50 (Fyn): 6 nM
- remaining activity at 10 µM (KDR; 10 μM): 2%
- remaining activity at 10 µM (EphB2; 10 μM): -1%
- IC50 (EphB2): 33 nM
- remaining activity at 10 µM (ErbB2; 10 μM): 4%
- IC50 (ErbB2): 165 nM
- remaining activity at 10 µM (DDR1; DDR1(h), 10 μM, read-out: The percentage of the remaining active protein): -2%
- IC50 (DDR1): 15 nM
- remaining activity at 10 µM (DDR2; DDR2(h), 10 μM, read-out: The percentage of the remaining active protein): 16%
- IC50 (DDR2): 65 nM
- remaining activity at 10 µM (IKKα; 10 μM): 7%
- remaining activity at 10 µM (EGFR; 10 μM): 11%
- remaining activity at 10 µM (Tie2; 10 μM): 1%
- remaining activity at 10 µM (CHK1(h); 10 μM): 114%
- remaining activity at 10 µM (Fer(h); 10 μM): 67%
- remaining activity at 10 µM (GSK3β(h); 10 μM): 26%
- remaining activity at 10 µM (Itk(h); 10 μM): 102%
- remaining activity at 10 µM (JNK1α1(h); 10 μM): 35%
- remaining activity at 10 µM (Met(h); 10 μM): 133%
- remaining activity at 10 µM (PAK1(h); 10 μM): 87%
- remaining activity at 10 µM (Pim-1(h); 10 μM): 99%
- remaining activity at 10 µM (PKBα(h); 10 μM): 101%
- remaining activity at 10 µM (PKBβ(h); 10 μM): 127%
- remaining activity at 10 µM (PKCα(h); 10 μM): 110%
- remaining activity at 10 µM (RIPK2(h); 10 μM): 21%
- remaining activity at 10 µM (TBK1(h); 10 μM): 104%
- remaining activity at 10 µM (Tec(h) activated; 10 μM): 24%
- IC50 (A549): > 10000 nM
- IC50 (MDA-MB-231; [1]): 30 nM
- IC50 (MDA-MB-231; [2]): < 100 nM
- IC50 (BT474): > 10 µM
- IC50 (HT29): 230 nM
- IC50 (A375): ~30 nM
- remaining activity at 10 µM (c-Src(1-530)): 0%
- remaining activity at 10 µM (EphA2; read-out: The percentage of the remaining active protein): -3%
Structure (SMILES): Cc1ccc(NC(=O)c2ccc(C)c(C(F)(F)F)c2)cc1C#Cc1nn([C@H]2CC[C@H](O)CC2)c2ncnc(N)c12 [Compound 93]

Reference: patent publication US10266537B2, “3-acetylenyl-pyrazole-pyrimidine derivative, and preparation method therefor and uses thereof” (Si Chuan University, priority 2015, dated 2019)
